Earlier results in patent US8216786B2, “Genetic polymorphisms associated with cardiovascular diseases, methods of detection and uses thereof” (Celera Corporation, priority 2008, dated 2012).

Tested on: animal models and myocyte cultures
Settings: compared to lipophilic statins; cited from earlier work

CC[C@H](C)C(=O)O[C@H]1C[C@H](O)C=C2C=C[C@H](C)[C@H](CC[C@@H](O)C[C@@H](O)CC(=O)O)[C@H]21 [pravastatin]
myopathic potential: low myopathic potential
